Source: patent publication US9790203B2, “Inhibitor compounds of phosphodiesterase type 10A” (ABBVIE DEUTSCHLAND GMBH & CO. KG, priority 2012, dated 2017)

Legend:
[1] = test system: rats; details: cited from earlier work
[2] = test system: rats; details: cited from earlier work; remark: listed apart in the source
[3] = test system: rats; details: cited from earlier work; remark: listed apart in the source
[4] = target: PDE10A (Homo sapiens (Human), UniProt Q9Y233); assay: Measurement of PDE activity (HTRF cAMP kit, recombinant PDE); assay type: biochemical; details: recombinant PDE10, 20 nM cyclic nucleotide substrate, 60 minutes at 29 C
Sequence of PDE10A (Q9Y233 whole entry, species assumed, canonical isoform): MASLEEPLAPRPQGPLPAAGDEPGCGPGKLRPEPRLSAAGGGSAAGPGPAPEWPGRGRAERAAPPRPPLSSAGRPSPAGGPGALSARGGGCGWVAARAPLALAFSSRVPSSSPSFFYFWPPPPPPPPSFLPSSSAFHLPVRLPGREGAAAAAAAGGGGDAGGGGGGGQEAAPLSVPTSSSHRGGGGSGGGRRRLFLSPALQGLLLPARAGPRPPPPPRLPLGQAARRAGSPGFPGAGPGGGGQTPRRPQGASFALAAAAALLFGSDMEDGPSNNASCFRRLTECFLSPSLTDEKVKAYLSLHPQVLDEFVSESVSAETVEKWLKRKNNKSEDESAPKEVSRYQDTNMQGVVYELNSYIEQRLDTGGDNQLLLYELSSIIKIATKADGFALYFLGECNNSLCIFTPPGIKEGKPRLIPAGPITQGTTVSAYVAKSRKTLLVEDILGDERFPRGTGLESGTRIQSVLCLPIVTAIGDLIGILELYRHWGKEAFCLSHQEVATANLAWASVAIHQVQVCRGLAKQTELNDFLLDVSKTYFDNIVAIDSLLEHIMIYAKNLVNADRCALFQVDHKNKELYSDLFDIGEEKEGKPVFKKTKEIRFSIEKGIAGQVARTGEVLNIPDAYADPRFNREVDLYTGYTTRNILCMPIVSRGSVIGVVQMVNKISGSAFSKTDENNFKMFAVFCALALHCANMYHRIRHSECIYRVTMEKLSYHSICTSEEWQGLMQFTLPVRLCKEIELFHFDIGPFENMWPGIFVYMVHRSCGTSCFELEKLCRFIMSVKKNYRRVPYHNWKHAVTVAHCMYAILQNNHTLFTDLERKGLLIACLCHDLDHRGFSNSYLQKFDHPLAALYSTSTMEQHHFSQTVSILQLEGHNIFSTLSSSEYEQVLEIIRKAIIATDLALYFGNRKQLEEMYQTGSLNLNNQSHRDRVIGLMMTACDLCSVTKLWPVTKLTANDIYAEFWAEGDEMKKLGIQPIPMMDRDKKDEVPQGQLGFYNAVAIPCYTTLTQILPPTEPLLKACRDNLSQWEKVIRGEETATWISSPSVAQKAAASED
Method: The recombinant PDE proteins are used in in vitro enzymatic reaction for measurement of PDE activity. These recombinant proteins, including PDE10A (human, rat and mouse PDE10) and isoforms of PDEs 1, 3, 4, and 5, were purchased from commercial vendor BPS Bioscience. The enzymatic activity of PDEs was determined by cAMP measurement kit from CisBio (IBA) using HTRF technology.
The PDE enzymatic reaction was carried out in assay buffer (20 mM Tris-HCl pH7.5, 10 mM MgCl2, 0.1% bovine serum albumin) containing enzyme and substrate. […] The substrate cyclic nucleotide (cAMP or cGMP) concentration used in the assay was 20 nM for PDE10, and 100 nM for other PDEs. The inhibitory effect of compound was determined by incubating various concentration of inhibitor in the enzymatic assay. […] Next, the compound at varying concentration was mixed with PDE enzyme. The reaction was initiated by addition of cyclic nucleotide substrate, and incubated for 60 minutes at 29 C. The reaction was stopped by addition of lysis buffer from assay kit. The cAMP-d2 and anti-cAMP cryptate in the lysis buffer detected the level of cAMP left from the PDE hydrolysis reaction. […] Thus, IC50 value of inhibitor can be obtained by plotting inhibitor concentration against PDE activity at that concentration.

[5] = Microsomal half-life / microsomal clearance, rat liver microsomes; assay type: in vitro ADME; details: 0.5 μM test substance, 0.25 mg microsomal protein/ml, pH 7.4, 37° C.
Method: (§1) The metabolic stability of the compounds of the invention was determined in the following assay.
(§2) The test substances were incubated in a concentration of 0.5 μM as follows:
(§3) 0.5 μM test substance are preincubated together with liver microsomes from different species (from rat, human or other species) (0.25 mg of microsomal protein/ml) in 0.05 M potassium phosphate buffer of pH 7.4 in microtiter plates at 37° C. for 5 min. The reaction is started by adding NADPH (1 mg/mL). After 0, 5, 10, 15, 20 and 30 min, 50 μl aliquots are removed, and the reaction is immediately stopped and cooled with the same volume of acetonitrile. The samples are frozen until analyzed. The remaining concentration of undegraded test substance is determined by MSMS. The half-life (T1/2) is determined from the gradient of the signal of test substance/unit time plot, it being possible to calculate the half-life of the test substance, assuming first order kinetics, from the decrease in the concentration of the compound with time. The microsomal clearance (mCl) is calculated from mCl=ln 2/T1/2/(content of microsomal protein in mg/ml)×1000 [ml/min/mg] (modified from references: Di, The Society for Biomoleculur Screening, 2003, 453-462; Obach, DMD, 1999 vol 27. N 11, 1350-1359).

[6] = Microsomal half-life / microsomal clearance, human liver microsomes; assay type: in vitro ADME; details: 0.5 μM test substance, 0.25 mg microsomal protein/ml, pH 7.4, 37° C.
Method: as §1, §2, §3

| Compound | catalepsy on its own ([1]; papaverine alone) | cataleptic effect of the D2 receptor antagonist haloperidol ([1]; with haloperidol) | hyperactivity induced by PCP [2] | reduction of amphetamine-induced hyperactivity [3] | IC50 [4] [µM] | Rat mCl [5] | Human mCl [6] |
| --- | --- | --- | --- | --- | --- | --- | --- |
| COc1ccc(Cc2nccc3cc(OC)c(OC)cc23)cc1OC [Papaverine, papaverine] | did not cause catalepsy on its own | potentiated the cataleptic effect | reduced hyperactivity | insignificant |  |  |  |
| Cc1cccc(C#Cc2ccc(-c3c(-c4ccncc4)cnn3C)cc2)n1 [Example 26, 2-methyl-6-[2-[4-[2-methyl-4-(4-pyridyl)pyrazol-3-yl]phenyl]ethynyl]pyridine] |  |  |  |  | < 0.1 | ++ (<100 μl min^−1 mg^−1) | ++ (<100 μl min^−1 mg^−1) |
| Cc1cccc(C#Cc2ccc(-c3nn(C)cc3-c3cccnc3)cc2)n1.O=C(O)C(F)(F)F [Example 29, 2-methyl-6-[2-[4-[1-methyl-4-(3-pyridyl)pyrazol-3-yl]phenyl]ethynyl]pyridine; 2,2,2-trifluoroacetic acid] |  |  |  |  | 0.2 to 0.5 | ++ (<100 μl min^−1 mg^−1) | ++ (<100 μl min^−1 mg^−1) |
